Experiments:
[1] = biological target: GST-tagged K-Ras mutant / His-tagged hSOS1 (Homo sapiens, UniProt P01116); experiment: HTRF assay, K-Ras mutant / SOS1 interaction; format: binding; conditions: compound nos. 401-703; read-out: IC50 against mutant Kras
How it was run: (§1)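 Buffer ~5 mM HEPES pH 7.4, ~150 mM NaCl, ~1 mM DTT, 0.05% BSA, 0.0025% Igepal. Cpd in DMSO + Ras/donor mix + SOS1/acceptor mix; ≥10 min; HTRF 665/620 ratio → IC50.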

wildtype Kras / hSOS1 = biological target: T1, wildtype Kras / hSOS1 (Homo sapiens, UniProt P01116); experiment: HTRF assay, wildtype Kras / SOS1 interaction; format: binding; conditions: compound nos. 401-703; read-out: IC50 against wildtype Kras
T1 construct: made in house; host or cells: E. coli BL21 (DE3)
T1 sequence (P01116 1-188 isoform P01116-2): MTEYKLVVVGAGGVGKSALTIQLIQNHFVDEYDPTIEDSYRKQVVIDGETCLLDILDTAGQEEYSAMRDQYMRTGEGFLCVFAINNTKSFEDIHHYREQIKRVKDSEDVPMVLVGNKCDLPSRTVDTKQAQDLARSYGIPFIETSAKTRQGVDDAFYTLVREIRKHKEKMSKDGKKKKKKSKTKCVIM
How it was run: as §1

Chain of GST-tagged K-Ras mutant / His-tagged hSOS1 (P01116 whole entry G12D, form open): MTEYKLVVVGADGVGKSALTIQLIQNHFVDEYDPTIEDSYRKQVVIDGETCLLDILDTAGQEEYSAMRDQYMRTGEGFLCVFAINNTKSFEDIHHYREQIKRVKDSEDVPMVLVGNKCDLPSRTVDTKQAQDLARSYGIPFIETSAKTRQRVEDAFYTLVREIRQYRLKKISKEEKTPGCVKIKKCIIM

| IC50 [1] [nM] | IC50 (wildtype Kras / hSOS1) [nM] | SMILES |
| --- | --- | --- |
| > 500 | > 500 | CN1CCCC1CCn1nc(N2CC3CCC(C2)N3)c2ccc(-c3cc(O)cc4ccccc34)c(F)c2c1=O (centres unmarked) [Compound 529, 4-(3,8-diazabicyclo[3.2.1]-octan-3-yl)-8-fluoro-7-(3-hydroxynaphthalen-1-yl)-2-(2-(1-methylpyrrolidin-2-yl)ethyl)phthalazin-1(2H)-one] |
| > 500 | > 500 | N#Cc1n[nH]c2c(F)ccc(-c3c(Cl)cc4c(N5CC6CCC(C5)N6)nc(OC[C@@]56CCCN5C[C@H](F)C6)nc4c3F)c12 [Compound 531, 4-(4-(3,8-diazabicyclo-[3.2.1]octan-3-yl)-6-chloro-8-fluoro-2-(((2R,7aS)-2-fluorotetrahydro-1H-pyrrol-izin-7a(5H)-yl)methoxy)-quin-azolin-7-yl)-7-fluoro-1H-indazole-3-carbonitrile] |
| < 500 | > 500 | Nc1nc2c(-c3c(Cl)cc4c(N5CCCC6(CCNC6)C5)nc(OC[C@@]56CCCN5C[C@H](F)C6)nc4c3F)ccc(F)c2s1 (stereo partly drawn) [Compound 532, 4-(6-chloro-8-fluoro-2-(((2R,7aS)-2-fluorotetra-hydro-1H-pyrrolizin-7a(5H)-yl)methoxy)-4-(2,7-diaza-spiro[4.5]decan-7-yl)quin-azolin-7-yl)-7-fluorobenzo-[d]thiazol-2-amine] |
| > 500 | > 500 | COc1nc2c(N3CC4CCC(C3)N4)nc(OC[C@@]34CCCN3C[C@H](F)C4)nc2cc1-c1cc(O)cc2ccccc12 [Compound 533, 4-(4-(3,8-diazabicyclo-[3.2.1]octan-3-yl)-2-(((2R,7aS)-2-fluorotetra-hydro-1H-pyrrolizin-7a(5H)-yl)methoxy)-6-methoxypyrido-[3,2-d]-pyrimidin-7-yl)naphthalen-2-ol] |
| > 500 | > 500 | OC1Cc2ccccc2N(c2ccc3c(N4CCCCCC4)nc(OCC45CCCN4CCC5)nc3c2F)C1 (centres unmarked) [Compound 534, 1-(4-(azepan-1-yl)-8-fluoro-2-((tetrahydro-1H-pyrrol-izin-7a(5H)-yl)methoxy)-quinazolin-7-yl)-1,2,3,4-tetrahydroquinolin-3-ol] |
| < 500 | > 500 | CN1CCC[C@H]1COc1nc(N2CCCC(C(=O)O)CC2)c2cc(Cl)c(-c3cccc4sc(N)nc34)c(F)c2n1 (stereo partly drawn) [Compound 535, 1-(7-(2-aminobenzo[d]thia-zol-4-yl)-6-chloro-8-fluoro-2-(((S)-1-methylpyrrolidin-2-yl)methoxy)quinazolin-4-yl)azepane-4-carboxylic acid] |
| > 500 | > 500 | Fc1c(Br)ccc2c(N3CC4CCC(C3)N4)nc(OC[C@@]34CCCN3C[C@H](F)C4)nc12 [Compound 537, 4-(3,8-diazabicyclo[3.2.1]-octan-3-yl)-7-bromo-8-fluoro-2-(((2R,7aS)-2-fluorotetrahydro-1H-pyrrol-izin-7a(5H)-yl)methoxy)-quinazoline] |
| > 500 | > 500 | OC1Cc2ccccc2N(c2ccc3c(N4CC5CCC(C4)N5)nc(OCC45CCCN4CCC5)nc3c2F)C1 (centres unmarked) [Compound 538, 1-(4-(3,8-diazabicyclo-[3.2.1]octan-3-yl)-8-fluoro-2-((tetrahydro-1H-pyrrol-izin-7a(5H)-yl)methoxy)-quinazolin-7-yl)-1,2,3,4-tetrahydro-quinolin-3-ol] |
| > 500 | > 500 | Fc1c(-c2cccc3ncccc23)c(Cl)cc2c(N3CCCCCC3)nc(OCC34CCCN3CCC4)nc12 [Compound 540, 4-(azepan-1-yl)-6-chloro-8-fluoro-7-(quinolin-5-yl)-2-((tetrahydro-1H-pyrrolizin-7a(5H)-yl)methoxy)quin-azoline] |
| > 500 | > 500 | Nc1nccc2c(-c3c(Cl)cc4c(N5CC6CCC(C5)N6)nc(OCC56CCCN5CCC6)nc4c3F)cccc12 [Compound 541, 5-(4-(3,8-diazabicyclo-[3.2.1]octan-3-yl)-6-chloro-8-fluoro-2-((tetrahydro-1H-pyrrolizin-7a(5H)-yl)meth-oxy)quinazolin-7-yl)iso-quinolin-1-amine] |

From patent US20240254129A1, “HETEROCYCLIC COMPOUNDS AND USES THEREOF” (Kumquat Biosciences Inc., priority 2021, published 2024)
